Measurements: patent publication US20090233973A1, “EPOTHILONE DERIVATIVES FOR THE TREATMENT OF MULTIPLE MYELOMA” (priority 2002, published 2009)

Experiments:
Assay type in all cases: cell-based, human
MM cells [1] = experiment: Proliferation ([3H]-thymidine) and cell viability (MTS) assays
Procedure: RPMI 8226 and U266 human MM cell lines can be obtained from the American Type Culture Collection (ATCC) of Rockville, Md. Patient derived MM cells are purified from patient BM samples, as described by Y. T. Tai, G. Teoh, Y. Shima, et al in J. Immunol. Methods 235:11, 2000. All human MM cell lines are cultured in RPMI-1640 media (Sigma Chemical, St. Louis, Mo.), containing 10% fetal bovine serum (FBS), 2 mmol/L L-glutamine (L-glut, GIBCO, Grand Island, N.Y.), 100 U/mL penicillin and […] streptomycin (P/S, GIBCO). MM patient cells are >95% CD38+, CD45RA−. […]
MM cells are first starved for 12 h in RPMI-1640 media containing […], and then plated into 96-well microtiter plates (Costar, Cambridge, Mass.), in the presence of drug or DMSO control. […] Proliferation is measured by the incorporation of [^3H]-thymidine (NEN Products, Boston, Mass.). Specifically, cells are pulsed with [^3H]-thymidine (0.5 μCi/well) for the last 6 h of 48 h cultures, harvested onto glass filters with an automatic cell harvester (Cambridge Technology, Cambridge, Mass.), and counted using a LKB Betaplate scintillation counter (Wallac, Gaithersburg, Md.). […] Cells are exposed to the MTS for the last 2 h of 48 h cultures, and absorbance is measured using an ELISA plate reader (Molecular Devices Corp., Sunnyvale, Calif.) at OD of 570 nm.

MM.1S cells = experiment: Proliferation of MM cells in a modified Boyden chamber transwell co-culture system with BMSCs; settings: 48 h
Procedure: Proliferation is measured in a modified Boyden chamber transwell system, using 24-well plates with a […] pore size inserts (Costar). BMSCs (4×10^4 cells/well) are plated in the lower chamber, starved, and incubated in an epothilone as described above. MM cells (20×10^4 cells/ml) are then placed in the upper chamber (insert), and [^3H]-thymidine uptake in the individual chambers is measured at 48 h as described above.
MM.1S cells are placed in the upper chamber of a transwell co-culture system in order to preclude direct contact between MM cells and BMSCs, but nonetheless allow for diffusion of humoral factors. Despite the lack of contact between the two cell types, uptake of [^3H]-dT by MM.1S cells incubated with BMSCs is increased by 2.2-fold (p<0.0001) at 48 h.

MM cells [2] = experiment: Cell cycle analysis (propidium iodide, flow cytometry)
Procedure: MM cells (1×10^6 cells) are cultured in the presence of Epothilone B or DMSO control for 24, 48 and 72 h. Cells are then washed with phosphate buffered saline (PBS), fixed with 70% ethanol, and treated with RNAse (Sigma). Cells are next stained with propidium iodide (PI, 5 μg/mL), and the cell cycle profile is determined using the M software on an Epics flow cytometer (Coulter Immunology, Hialeah, Fla.).

C/C(=C\c1csc(C)n1)[C@@H]1C[C@@H]2O[C@]2(C)CCC[C@H](C)[C@H](O)[C@@H](C)C(=O)C(C)(C)[C@@H](O)CC(=O)O1 [epothilone B] was tested, and the “growth and survival of myeloma cells” value (MM cells [1]) was “directly inhibit the growth and survival of myeloma cells”, the “proliferation of MM.1S cells ([3H]-dT uptake)” value (MM.1S cells) was “reduces proliferation of MM.1S cells” and the “cell cycle effect / apoptosis” value (MM cells [2]) was “induces G2M arrest in MM cells with subsequent apoptosis”.
